Data set [1] can be described thus: Potential characterization of nucleic acid lipid nanoparticle preparations. The data set is classed as physicochemical. An outline of the steps:
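Zeta potential was read on a Malvern ZEN3700 after diluting 20 μL lipid nanoparticle solution (about 0.04 mg/mL mRNA) into 780 μL ultrapure water. Alternatively, a 27.5 μL sample in 200 μL water was first sized by dynamic light scattering, then diluted with 600 μL more water for potential measurement.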

Data set [2] in a line: Particle size and PDI of nucleic acid lipid nanoparticle preparations by dynamic light scattering. It counts as physicochemical. In outline: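 Nanoparticle suspension (about 0.04 mg/mL mRNA) diluted in ultrapure water, mixed by gentle pipetting; particle size measured by dynamic light scattering. Zeta potential measured on the recovered sample after further dilution in ultrapure water.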

The subject of the next data set is mice. The data set is described as follows: In vivo delivery of FLuc-mRNA lipid nanoparticles in mice, in vivo imaging (IVIS). As to conditions: for IVIS: Fluc-mRNA. An outline of the steps: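 Mice (n=3) received about 75 μL FLuc-mRNA LNP per mouse intramuscularly (rectus femoris), intravenously (tail vein), intraperitoneally or subcutaneously (back). After injection, D-luciferin (200 μL, 15 mg/mL) was given i.p. 10-15 min before IVIS imaging.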

The mark [3] stands for this setting: DMG-PEG2000:DPPC:Chol:compound 1.40:11.15:38.95:48.50, N/P 30.
Setting [4] is: IV, liver, DMG-PEG2000:DPPC:Chol:compound 1.40:11.15:38.95:48.50, N/P 30.
The mark [5] stands for this setting: IV, lung, DMG-PEG2000:DPPC:Chol:compound 1.40:11.15:38.95:48.50, N/P 30.
Setting [6] is: IV, spleen, DMG-PEG2000:DPPC:Chol:compound 1.40:11.15:38.95:48.50, N/P 30.
Where [7] appears, read: DMG-PEG2000:DSPC:Chol:compound 1.40:11.15:38.95:48.50, N/P 20.
Where [8] appears, read: IM, DMG-PEG2000:DSPC:Chol:compound 1.40:11.15:38.95:48.50, N/P 20.
Setting [9] is: IV, organ not given, DMG-PEG2000:DSPC:Chol:compound 1.40:11.15:38.95:48.50, N/P 20.
Where [10] appears, read: DMG-PEG2000:DSPC:Chol:compound 1.40:11.15:38.95:48.50, N/P 30.
Setting [11] is: IM, DMG-PEG2000:DSPC:Chol:compound 1.40:11.15:38.95:48.50, N/P 30.
Setting [12] is: IV, body, DMG-PEG2000:DSPC:Chol:compound 1.40:11.15:38.95:48.50, N/P 30.
[13] abbreviates: IV, liver, DMG-PEG2000:DSPC:Chol:compound 1.40:11.15:38.95:48.50, N/P 30.
Where [14] appears, read: IV, lung, DMG-PEG2000:DSPC:Chol:compound 1.40:11.15:38.95:48.50, N/P 30.
The mark [15] stands for this setting: IV, spleen, DMG-PEG2000:DSPC:Chol:compound 1.40:11.15:38.95:48.50, N/P 30.
Where [16] appears, read: DSPE-PEG5000:DSPC:Chol:compound 1.40:11.15:38.95:48.50, N/P 30.
Where [17] appears, read: IM, DSPE-PEG5000:DSPC:Chol:compound 1.40:11.15:38.95:48.50, N/P 30.
Where [18] appears, read: IV, organ not given, DSPE-PEG5000:DSPC:Chol:compound 1.40:11.15:38.95:48.50, N/P 30.

Consider ten molecules from patent publication US12233161B1, “Lipids and lipid nanoparticle formulations” (LONGUIDE BIOPHARMA CORPORATION, priority 2024, dated 2025).

In the case of `CCCCCCCCCCCCN(C)C(=O)C(O)CN(CCCN(C)CCCN(CC(O)C(=O)N(C)CCCCCCCCCCCC)CC(O)C(=O)N(C)CCCCCCCCCCCC)CC(O)C(=O)N(C)CCCCCCCCCCCC` (centres unmarked) [Compound L0345], in data set [1] (setting [3]), the “Zeta potential (mV)” value was determined as 10.25 mV. Also, the PDI in data set [2] (setting [3]) was found to be 0.19. In addition, in data set [2] (setting [3]), the “Particle size (nm)” value was 81.64 nm. Further, the IVIS with mice (IM, DMG-PEG2000:DPPC:Chol:compound 1.40:11.15:38.95:48.50, N/P 30) worked out at 3.56E+05; with mice (IV, body, DMG-PEG2000:DPPC:Chol:compound 1.40:11.15:38.95:48.50, N/P 30), 2.28E+06; in the data set with mice (setting [4]) it was 1.27E+05; in the data set with mice (setting [5]), 6.05E+06; with mice (setting [6]) it was 5.29E+05. Moreover, the “% of organ targeting” value was 1.89% with mice (setting [4]), 90.22% in the data set on mice (setting [5]) and 7.89% with mice (setting [6]).
On to `CCCCCCCCCCOC(=O)C(O)CN(CCCCCCCN(CC(O)C(=O)OCCCCCCCCCC)CC(O)C(=O)OCCCCCCCCCC)CC(O)C(=O)OCCCCCCCCCC` (centres unmarked) [Compound L0321], for which the “Zeta potential (mV)” value in data set [1] (setting [7]) was −0.61 mV. Besides, in data set [2] (setting [7]), the PDI turned out to be 0.48 and the “Particle size (nm)” value was 207.73 nm. The IVIS with mice (setting [8]) was determined as 1.37E+05. The molecule further registered an IVIS in the data set on mice (setting [9]) of 2.11E+05.
Turning to `CCCCCCCC/C=C\CCCCCCCCNC(=O)C(O)CN(CCCN(C)CCCN(CC(O)C(=O)NCCCCCCCC/C=C\CCCCCCCC)CC(O)C(=O)NCCCCCCCC/C=C\CCCCCCCC)CC(O)C(=O)NCCCCCCCC/C=C\CCCCCCCC` (centres unmarked) [Compound L0317], the “Zeta potential (mV)” value in data set [1] (setting [10]) stood at 13.53 mV. Moreover, the PDI in data set [2] (setting [10]) was 0.15. In addition, the “Particle size (nm)” value in data set [2] (setting [10]) came to 117.83 nm. For the same molecule, the IVIS turned out to be 1.53E+06 in the data set on mice (setting [11]); 3.60E+07 in the data set on mice (setting [12]); 2.78E+06 with mice (setting [13]); 7.03E+07 with mice (setting [14]); 1.51E+07 in the data set with mice (setting [15]). Also, the “% of organ targeting” value in the data set on mice (setting [13]) stood at 3.15%; with mice (setting [14]), 79.76%; in the data set with mice (setting [15]), 17.09%.
`CCCCCCC(CCCCCC)C(=O)OCCCCCCOC(=O)C(O)CN(CCN(C)CCN(CC(O)C(=O)OCCCCCCOC(=O)C(CCCCCC)CCCCCC)CC(O)C(=O)OCCCCCCOC(=O)C(CCCCCC)CCCCCC)CC(O)C(=O)OCCCCCCOC(=O)C(CCCCCC)CCCCCC` (centres unmarked) [Compound L0336]: the “Zeta potential (mV)” value in data set [1] (setting [10]) came to 4.21 mV. In data set [2] (setting [10]), this molecule returned a PDI of 0.13. The “Particle size (nm)” value in data set [2] (setting [10]) is on record as 78.38 nm. Further, the IVIS in the data set on mice (setting [11]) was determined as 1.51E+08; with mice (setting [12]), 9.63E+08; in the data set with mice (setting [13]) it was 1.95E+08; in the data set with mice (setting [14]), 1.59E+06; with mice (setting [15]), 2.65E+07. In addition, the “% of organ targeting” value was 87.42% with mice (setting [13]), 0.71% in the data set with mice (setting [14]) and 11.87% with mice (setting [15]).
For the molecule `CCCCCCCCCCCCN(C)C(=O)C(O)CN(C)CCN(C)CCN(C)CC(O)C(=O)N(C)CCCCCCCCCCCC` (centres unmarked) [Compound L0341], the “Zeta potential (mV)” value in data set [1] (setting [16]) was 7.85 mV. Further, in data set [2] (setting [16]), the PDI was 0.18 and the “Particle size (nm)” value amounted to 212.5 nm. The molecule also yielded an IVIS in the data set on mice (setting [17]) of 9.99E+04. This molecule also showed an IVIS in the data set with mice (setting [18]) of 4.10E+05.
Turning to `CCCCCCCCCCCCOC(=O)C(O)CN(CCCCCN(CC(O)C(=O)OCCCCCCCCCCCC)CC(O)C(=O)OCCCCCCCCCCCC)CC(O)C(=O)OCCCCCCCCCCCC` (centres unmarked) [Compound L0319], the “Zeta potential (mV)” value in data set [1] (setting [7]) was 11.20 mV. In data set [2] (setting [7]), the PDI came out at 0.13 and the “Particle size (nm)” value stood at 172.83 nm. In the data set on mice (setting [8]), this molecule registered an IVIS of 7.22E+05. In addition, the IVIS with mice (setting [9]) was 1.32E+06.
For `CCCCCCC(CCCCCC)C(=O)OCCCCOC(=O)C(O)CN(CCCN(C)CCCN(CC(O)C(=O)OCCCCOC(=O)C(CCCCCC)CCCCCC)CC(O)C(=O)OCCCCOC(=O)C(CCCCCC)CCCCCC)CC(O)C(=O)OCCCCOC(=O)C(CCCCCC)CCCCCC` (centres unmarked) [Compound L0294], in data set [1] (setting [10]), the “Zeta potential (mV)” value is given as 9.23 mV. This molecule returned a PDI in data set [2] (setting [10]) of 0.13. The “Particle size (nm)” value in data set [2] (setting [10]) was found to be 129.13 nm. Besides, the IVIS in the data set on mice (setting [11]) was determined as 3.81E+07; in the data set on mice (setting [12]), 3.72E+08; with mice (setting [13]) it was 5.13E+07; with mice (setting [14]), 1.01E+07; in the data set with mice (setting [15]), 7.28E+07. Also, the “% of organ targeting” value is 38.21% in the data set on mice (setting [13]), 7.55% in the data set on mice (setting [14]) and 54.25% with mice (setting [15]).
As to `CCCCCCCCCCCCN(C)C(=O)C(O)CN(CCCN(CC(O)C(=O)N(C)CCCCCCCCCCCC)CC(O)C(=O)N(C)CCCCCCCCCCCC)CCCN(CC(O)C(=O)N(C)CCCCCCCCCCCC)CC(O)C(=O)N(C)CCCCCCCCCCCC` (centres unmarked) [Compound L0342], the “Zeta potential (mV)” value in data set [1] (setting [16]) was 5.68 mV. Further, in data set [2] (setting [16]), the PDI is 0.24 and the “Particle size (nm)” value was determined as 73.79 nm. The molecule further gave an IVIS in the data set on mice (setting [17]) of 2.02E+07. In addition, in the data set on mice (setting [18]), the IVIS is 5.77E+06.
With `CCCCCCOC(C)OCCCCCCOC(=O)C(O)CN(C)CCN(C)CCN(C)CC(O)C(=O)OCCCCCCOC(C)OCCCCCC` (centres unmarked) [Compound L0300], in data set [1] (setting [7]), the “Zeta potential (mV)” value is listed as 5.14 mV. In addition, in data set [2] (setting [7]), the PDI amounted to 0.13 and the “Particle size (nm)” value worked out at 157.77 nm. The IVIS in the data set on mice (setting [8]) is recorded as 1.09E+06. Further, the IVIS with mice (setting [9]) is on record as 7.12E+05.
Turning to `CCCCCCCCC(CCCCCC)C(=O)OCCCCCCOC(=O)C(O)CN(C)CCN(C)CCN(C)CC(O)C(=O)OCCCCCCOC(=O)C(CCCCCC)CCCCCCCC` (centres unmarked) [Compound L0292], the “Zeta potential (mV)” value in data set [1] (setting [10]) worked out at 13.33 mV. The same molecule gave a PDI in data set [2] (setting [10]) of 0.22. The “Particle size (nm)” value in data set [2] (setting [10]) worked out at 151.20 nm. Also, the IVIS in the data set on mice (setting [11]) is recorded as 1.05E+05; in the data set with mice (setting [12]), 9.82E+06; with mice (setting [13]), 3.22E+06; in the data set on mice (setting [14]), 2.05E+06; with mice (setting [15]), 7.53E+06. The figures for the “% of organ targeting” value in the data set with mice (setting [13]), in the data set with mice (setting [14]) and with mice (setting [15]) were 25.18%, 16.03% and 58.80%, respectively.
